# Test results from US10072017B2, “Compounds and methods for the treatment of cystic fibrosis” (Flatley Discovery Lab, LLC, priority 2015, dated 2018).
# Biological target: T1, CFTR (Homo sapiens, UniProt P13569, DEL508-508)
# T1 construct: Primary CF airway epithelial cells were obtained from the UNC Cystic Fibrosis Tissue Procurement and Cell Culture Core; host or cells: primary CF airway epithelial cells
# Test: Equivalent current assay in Primary CF airway epithelial cells (NAUC)
# Type: cell-based
# Conditions: 24 h, normalized to VX809 (3 μM) positive control; for Nauc @ 3 μM: 3 μM test compound; for Nauc @ 10 μM: 10 μM test compound
# Procedure, shortened: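 NAUC is the area under the curve from forskolin (10 μM) plus VX770 (1 μM) addition to CFTR-172 (20 μM) block, after benzamil (5 μM). It is corrected for vehicle and scaled to 3 μM VX809 as 1.0 and DMSO as 0.0. Cells were exposed for 24 h to compounds with VX809; medians of ≥4 replicates were fitted sigmoidally.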
# T1 sequence (P13569 with tags, fused parts or gaps DEL508-508): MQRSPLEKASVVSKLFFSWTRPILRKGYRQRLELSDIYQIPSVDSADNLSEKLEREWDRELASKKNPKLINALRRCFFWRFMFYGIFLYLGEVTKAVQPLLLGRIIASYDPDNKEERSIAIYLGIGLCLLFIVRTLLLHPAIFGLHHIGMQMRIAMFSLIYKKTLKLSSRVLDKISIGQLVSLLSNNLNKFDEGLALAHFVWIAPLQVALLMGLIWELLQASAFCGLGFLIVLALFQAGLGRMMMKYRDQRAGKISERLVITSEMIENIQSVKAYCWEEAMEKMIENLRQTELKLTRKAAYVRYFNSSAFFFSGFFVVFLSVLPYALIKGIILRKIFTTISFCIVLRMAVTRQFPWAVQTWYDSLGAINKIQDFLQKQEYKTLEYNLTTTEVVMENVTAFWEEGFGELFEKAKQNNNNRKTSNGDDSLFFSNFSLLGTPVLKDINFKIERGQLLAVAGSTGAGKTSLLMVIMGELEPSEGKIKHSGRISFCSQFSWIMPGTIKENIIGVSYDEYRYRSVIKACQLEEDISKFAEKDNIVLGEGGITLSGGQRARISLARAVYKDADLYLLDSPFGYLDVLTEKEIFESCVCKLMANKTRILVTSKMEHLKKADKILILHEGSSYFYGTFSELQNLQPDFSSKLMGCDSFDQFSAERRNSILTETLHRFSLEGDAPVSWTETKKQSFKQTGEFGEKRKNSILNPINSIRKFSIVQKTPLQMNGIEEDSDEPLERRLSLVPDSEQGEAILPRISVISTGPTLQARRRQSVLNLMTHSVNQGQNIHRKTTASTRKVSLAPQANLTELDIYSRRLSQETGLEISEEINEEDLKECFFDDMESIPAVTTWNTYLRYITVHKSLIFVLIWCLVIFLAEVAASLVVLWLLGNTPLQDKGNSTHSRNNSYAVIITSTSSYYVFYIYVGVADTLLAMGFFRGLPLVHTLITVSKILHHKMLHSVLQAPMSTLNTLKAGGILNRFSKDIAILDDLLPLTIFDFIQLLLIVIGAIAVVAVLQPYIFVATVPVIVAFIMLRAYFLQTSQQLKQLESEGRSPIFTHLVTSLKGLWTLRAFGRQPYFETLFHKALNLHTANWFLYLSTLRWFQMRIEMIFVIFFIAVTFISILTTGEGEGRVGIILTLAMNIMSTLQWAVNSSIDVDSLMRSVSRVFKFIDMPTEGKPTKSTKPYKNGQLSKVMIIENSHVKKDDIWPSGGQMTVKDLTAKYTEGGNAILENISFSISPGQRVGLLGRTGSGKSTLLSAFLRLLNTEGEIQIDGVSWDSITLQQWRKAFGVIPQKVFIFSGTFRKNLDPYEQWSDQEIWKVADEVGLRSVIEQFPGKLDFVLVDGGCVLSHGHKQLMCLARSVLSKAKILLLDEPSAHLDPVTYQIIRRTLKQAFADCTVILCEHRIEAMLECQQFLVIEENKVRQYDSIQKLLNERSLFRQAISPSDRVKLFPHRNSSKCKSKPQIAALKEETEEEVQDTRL
SMILES,Nauc @ 3 μM,Nauc @ 10 μM
O=C1C2C3CCCN3C3(C(=O)Nc4c(Cl)cc(Cl)cc43)C2C(=O)N1c1cccc(F)n1 (stereo not drawn) [Example 227],+ (NAUC “+” refers to an observed NAUC <140% of positive control),++ (NAUC “++” refers to an observed NAUC 170-140% of positive control)
Cc1nc(CC2NC3(C(=O)Nc4c(Cl)cc(Cl)cc43)C3C(=O)N(c4cc(Cl)cc(Cl)c4)C(=O)C23)cs1 (stereo not drawn) [Example 248],+ (NAUC “+” refers to an observed NAUC <140% of positive control),++ (NAUC “++” refers to an observed NAUC 170-140% of positive control)
CC1(C)CC2C3C(=O)N(c4cc(Cl)c(OC(F)F)c(Cl)c4)C(=O)C3C3(C(=O)Nc4c(Cl)cc(Cl)cc43)N2C1 (stereo not drawn) [Example 225],+++ (NAUC “+++” refers to an observed NAUC >170% of positive control),+++ (NAUC “+++” refers to an observed NAUC >170% of positive control)
"O=C1[C@H]2[C@H]3C[C@H](O)CN3[C@]3(C(=O)Nc4c(Cl)cc(Cl)cc43)[C@H]2C(=O)N1c1cc(Cl)cc(Cl)c1 (single isomer, unassigned) [Example 2]",+++ (NAUC “+++” refers to an observed NAUC >170% of positive control),+++ (NAUC “+++” refers to an observed NAUC >170% of positive control)
C[C@]1(F)CC2C3C(=O)N(c4cc(Cl)cc(Cl)n4)C(=O)C3C3(C(=O)Nc4c(Cl)cc(Cl)cc43)N2C1 (stereo partly drawn) [Example 231],+ (NAUC “+” refers to an observed NAUC <140% of positive control),+++ (NAUC “+++” refers to an observed NAUC >170% of positive control)
COC1(OC)CC2C3C(=O)N(c4cc(Cl)cc(Cl)c4)C(=O)C3C3(C(=O)Nc4c(Cl)cc(Cl)cc43)N2C1 (stereo not drawn) [Example 167],+ (NAUC “+” refers to an observed NAUC <140% of positive control),++ (NAUC “++” refers to an observed NAUC 170-140% of positive control)
O=C1C2C3CC(=C(F)F)CN3C3(C(=O)Nc4c(Cl)cc(Cl)cc43)C2C(=O)N1c1cc(Cl)cc(Cl)n1 (stereo not drawn) [Example 122],+++ (NAUC “+++” refers to an observed NAUC >170% of positive control),+ (NAUC “+” refers to an observed NAUC <140% of positive control)
"O=C1C2C3C[C@H](O)CN3C3(C(=O)Nc4c(Cl)cc(Cl)cc43)C2C(=O)N1c1cc(C(F)(F)F)cc(C(F)(F)F)c1 (single isomer, unassigned) [Example 62]",++ (NAUC “++” refers to an observed NAUC 170-140% of positive control),++ (NAUC “++” refers to an observed NAUC 170-140% of positive control)
"COc1cc(Cl)cc(N2C(=O)C3C4C[C@H](Cl)CN4C4(C(=O)Nc5c(Cl)cc(Cl)cc54)C3C2=O)c1 (single isomer, unassigned) [Example 107]",+++ (NAUC “+++” refers to an observed NAUC >170% of positive control),+++ (NAUC “+++” refers to an observed NAUC >170% of positive control)
COc1c(Cl)cc(N2C(=O)C3C4CC(C(F)(F)F)CN4C4(C(=O)Nc5c(Cl)cc(Cl)cc54)C3C2=O)cc1Cl (stereo not drawn) [Example 213],++ (NAUC “++” refers to an observed NAUC 170-140% of positive control),+++ (NAUC “+++” refers to an observed NAUC >170% of positive control)
O=C1C2C(Cc3ccccc3OC(F)(F)F)NC3(C(=O)Nc4c(Cl)cc(Cl)cc43)C2C(=O)N1c1cc(Cl)cc(Cl)c1 (stereo not drawn) [Example 222],+++ (NAUC “+++” refers to an observed NAUC >170% of positive control),++ (NAUC “++” refers to an observed NAUC 170-140% of positive control)
O=C1C2C(C(=O)N1c1cc(Cl)cc(Cl)c1)C1(NC23CC3)C(=O)Nc2c(Cl)cc(Cl)cc21 (stereo not drawn) [Example 210],+ (NAUC “+” refers to an observed NAUC <140% of positive control),++ (NAUC “++” refers to an observed NAUC 170-140% of positive control)
O=C1C2C3CCCN3C3(C(=O)Nc4ccc(C(F)(F)F)cc43)C2C(=O)N1c1cc(Cl)cc(Cl)n1 (stereo not drawn) [Example 102],+ (NAUC “+” refers to an observed NAUC <140% of positive control),++ (NAUC “++” refers to an observed NAUC 170-140% of positive control)
O=C1C2C3C[C@H](O)CN3C3(C(=O)Nc4c(Cl)cc(Cl)cc43)C2C(=O)N1c1cc(Cl)cc(Br)c1 (stereo partly drawn) [Example 41],++ (NAUC “++” refers to an observed NAUC 170-140% of positive control),+++ (NAUC “+++” refers to an observed NAUC >170% of positive control)
"COc1c(Cl)cc(N2C(=O)C3C4CC(C)(C)CN4C4(C(=O)Nc5c(Cl)cc(Cl)cc54)C3C2=O)cc1Cl (single isomer, unassigned) [Example 4, 5,7-dichloro-2′-(3,5-dichloro-4-methoxyphenyl)-7′,7′-dimethyl-3a′,6′,7′,8′,8a′,8b′-hexahydro-1′H-spiro[indoline-3,4′-pyrrolo[3,4-a]pyrrolizine]-1′,2,3′(2′H)-trione]",+++ (NAUC “+++” refers to an observed NAUC >170% of positive control),++ (NAUC “++” refers to an observed NAUC 170-140% of positive control)
O=C1C2C(Cc3c[nH]c4ccccc34)NC3(C(=O)Nc4c(Cl)cc(Cl)cc43)C2C(=O)N1c1cc(Cl)cc(Cl)c1 (stereo not drawn) [Example 155],++ (NAUC “++” refers to an observed NAUC 170-140% of positive control),+ (NAUC “+” refers to an observed NAUC <140% of positive control)
O=C1C2C3CCCN3C3(C(=O)Nc4c(Cl)cc(Cl)cc43)C2C(=O)N1c1cc(Cl)nc(Cl)c1 (stereo not drawn) [Example 33],++ (NAUC “++” refers to an observed NAUC 170-140% of positive control),+++ (NAUC “+++” refers to an observed NAUC >170% of positive control)
C[C@@]1(F)CC2C3C(=O)N(c4cc(Cl)cc(Cl)n4)C(=O)C3C3(C(=O)Nc4c(Cl)cc(Cl)cc43)N2C1 (stereo partly drawn) [Example 173],+++ (NAUC “+++” refers to an observed NAUC >170% of positive control),+++ (NAUC “+++” refers to an observed NAUC >170% of positive control)
"COc1cc(Cl)cc(N2C(=O)C3C4CC(=C(F)F)CN4C4(C(=O)Nc5c(Cl)cc(Cl)cc54)C3C2=O)c1 (single isomer, unassigned) [Example 138]",+++ (NAUC “+++” refers to an observed NAUC >170% of positive control),+ (NAUC “+” refers to an observed NAUC <140% of positive control)
"COc1c(Cl)cc(N2C(=O)C3C4C[C@H](F)CN4C4(C(=O)Nc5c(Cl)cc(Cl)cc54)C3C2=O)cc1Cl (single isomer, unassigned) [Example 118]",++ (NAUC “++” refers to an observed NAUC 170-140% of positive control),++ (NAUC “++” refers to an observed NAUC 170-140% of positive control)
"CC1(C)CC2C3C(=O)N(c4cc(Cl)c(OC(F)F)c(Cl)c4)C(=O)C3C3(C(=O)Nc4c(Cl)cc(Cl)cc43)N2C1 (single isomer, unassigned) [Example 255]",+++ (NAUC “+++” refers to an observed NAUC >170% of positive control),+++ (NAUC “+++” refers to an observed NAUC >170% of positive control)
